Laboratory results as given in PubChem BioAssay (NCI).
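1) Cells in 96-well plates. 2) Compound, 48 h, 5 concentrations. 3) Linear interpolation between surrounding doses. 4) Unreached endpoint = highest concentration. TGI denotes the concentration required for complete inhibition of growth.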

Experiments:
Test in all cases: inhibition of tumour cell growth, NCI panel, 48 h
HS 578T breast = tested on: HS 578T breast
MALME-3M melanoma = tested on: MALME-3M melanoma
HOP-62 NSCLC = tested on: HOP-62 NSCLC
M14 melanoma = tested on: M14 melanoma
OVCAR-8 ovarian = tested on: OVCAR-8 ovarian
SW-620 colon = tested on: SW-620 colon
OVCAR-4 ovarian = tested on: OVCAR-4 ovarian
SNB-19 CNS = tested on: SNB-19 CNS
CCRF-CEM leukemia = tested on: CCRF-CEM leukemia
SNB-75 CNS = tested on: SNB-75 CNS
HT29 colon = tested on: HT29 colon
SK-MEL-28 melanoma = tested on: SK-MEL-28 melanoma
SK-OV-3 ovarian = tested on: SK-OV-3 ovarian
SF-539 CNS = tested on: SF-539 CNS
LOX IMVI melanoma = tested on: LOX IMVI melanoma
MCF7 breast = tested on: MCF7 breast
NCI-H522 lung = tested on: NCI-H522 lung
UACC-62 melanoma = tested on: UACC-62 melanoma

SMILES | TGI (HS 578T breast) [µM] | TGI (MALME-3M melanoma) [µM] | TGI (HOP-62 NSCLC) [µM] | TGI (M14 melanoma) [µM] | TGI (OVCAR-8 ovarian) [µM] | TGI (SW-620 colon) [µM] | TGI (OVCAR-4 ovarian) [µM] | TGI (SNB-19 CNS) [µM] | TGI (CCRF-CEM leukemia) [µM] | TGI (SNB-75 CNS) [µM] | TGI (HT29 colon) [µM] | TGI (SK-MEL-28 melanoma) [µM] | TGI (SK-OV-3 ovarian) [µM] | TGI (SF-539 CNS) [µM] | TGI (LOX IMVI melanoma) [µM] | TGI (MCF7 breast) [µM] | TGI (NCI-H522 lung) [µM] | TGI (UACC-62 melanoma) [µM]
Cc1cc(NS(=O)(=O)c2ccc(NC(=O)c3ccc4[nH]c5ccccc5c(=O)c4c3)cc2)no1 | > 100 | > 100 | > 100 | > 100 | > 100 | > 100 | > 100 | > 100 | > 100 | > 100 | > 100 | > 100 | > 100 | > 100 | > 100 | > 100 | > 100 | > 100
S=c1nc(Cc2ccc(Cl)cc2)[nH][nH]1 | > 100 | > 100 | > 100 | > 100 | > 100 | > 100 | > 100 | > 100 | > 100 | > 100 | > 100 | > 100 | > 100 | > 100 | > 100 | > 100 |  | > 100
Cc1n[nH]c(=O)n1C1CCCC1 | > 100 | > 100 | > 100 | > 100 | > 100 | > 100 | > 100 | > 100 | > 100 | > 100 | > 100 | > 100 |  | > 100 | > 100 | > 100 | > 100 | 
COC(=O)[C@H](Cc1ccccc1)NC(=O)N1CCCN(C(=O)N[C@@H](Cc2ccccc2)C(=O)OC)CCCN(C(=O)N[C@@H](Cc2ccccc2)C(=O)OC)CCC1 | 44.6 | 34.1 | 35.5 | 32.4 | 47.2 | 39.7 | 54.7 | 74.8 | 92.8 | 30.6 | 33.5 | 35.4 | 73.9 |  | 29.8 | 49.3 | 35.2 | 30.2
O=c1[nH]c2ccc(Cl)cc2c2oc(-c3ccccc3)nc12 | 41.2 | 78 | 43.6 | > 100 | 24.8 | > 100 | 35.4 | 43.1 | > 100 |  | > 100 |  | 44.1 | > 100 | > 100 | > 100 | 32.3 | > 100
Cc1ccc(Cc2n[nH]c(=O)n2/N=C\CC/C=N\n2c(Cc3ccc(C)cc3)n[nH]c2=O)cc1 | 45.5 | > 100 | 24.6 | > 100 | 39.9 | > 100 | > 100 | > 100 | > 100 | 34.7 | > 100 | > 100 | > 100 | 24.9 | > 100 | > 100 | > 100 | > 100
CC1=NOC2(C1)C(=O)Nc1ccccc12 (centres undefined) | > 100 | > 100 | > 100 | > 100 | > 100 | > 100 | > 100 | > 100 | > 100 | > 100 | > 100 | > 100 | > 100 | > 100 | > 100 | > 100 | > 100 | > 100
O=S(=O)(N/N=C1\CC2CCC1C2)c1ccccc1 (centres undefined) | > 100 | > 100 | > 100 | > 100 | > 100 | > 100 | > 100 | > 100 | > 100 | > 100 | > 100 | > 100 | > 100 |  | > 100 | > 100 | > 100 | > 100
Cc1nc2ccc(Cl)cc2c2c1CCS2 | > 100 | > 100 | > 100 | > 100 | > 100 | > 100 | > 100 | > 100 | > 100 |  | > 100 | > 100 | > 100 | > 100 | > 100 | > 100 | > 100 | > 100
Cc1ncc([N+](=O)[O-])n1CCN(C)C(=O)CCCn1ccnc1[N+](=O)[O-] | > 100 | > 100 | > 100 | > 100 | > 100 | > 100 | > 100 |  | > 100 | > 100 | > 100 | > 100 | > 100 | > 100 | > 100 | > 100 | > 100 | > 100
COP(=O)(Cc1ccc(/C=C/C#N)o1)OC | > 100 | > 100 | > 100 | > 100 | > 100 |  | > 100 | > 100 | > 100 | > 100 | > 100 | > 100 | > 100 | > 100 |  | > 100 | > 100 | > 100
C=C1[C@H](OC(=O)C(C)C)[C@]23CC4(O)[C@@H]5[C@@]6(C)CCC[C@]57C([C@@H]2C[C@@]1(O)[C@H](O)[C@@H]73)N4C6 | > 100 | > 100 | > 100 | > 100 | > 100 | > 100 | > 100 | > 100 | > 100 | > 100 | > 100 | > 100 | > 100 | > 100 | > 100 | > 100 | > 100 | > 100
O=C(c1ccco1)N(Cc1ccco1)C(=S)Nc1ccccc1 | 72 | 44.2 | > 100 | 28.5 | 59.7 | 32.2 | 68.1 | > 100 | 18.7 | > 74.9 | 42.1 | 33.8 | > 100 | 15.4 | 27.1 | 49 | 37.7 | 37.1
CC(C)c1nc2cc(C(F)(F)F)ccc2[nH]c1=O | 54.5 | > 100 | > 100 | > 100 | > 100 | > 100 | > 100 | > 100 | > 100 | > 100 | > 100 | > 100 | > 100 | > 100 |  | > 100 | > 100 | > 100
Cn1c(N)c(C(N)=O)[nH]c1=S | > 100 | > 100 | > 100 | > 100 | > 100 | > 100 | > 100 | > 100 | > 100 | > 100 | > 100 | > 100 | > 100 | > 100 | > 100 | > 100 | > 100 | > 100
COC(=O)[C@@H]1C=C[C@H](OC2OC(COC(C)=O)C(OC(C)=O)C(OC(C)=O)C2OC(C)=O)n2c(=O)c3ccccc3c(=O)n21 (some centres undefined) | 76.2 | 39.6 | 36.3 | 36.9 | 49 | 24.9 | 34.6 | 47.2 | 24.9 | 20.6 | 60.9 | 27.8 | 28.2 | 33.7 | 29.5 | 29.3 | 3.28 | 23
COc1cc(-c2cc(=O)c3c(OC)c(OC)c(OC)cc3o2)c(OC)c(OC)c1OC | > 75 | > 75 | > 75 | > 75 | > 75 | > 75 | > 75 | > 75 | > 75 | > 75 | > 75 | > 75 | > 75 | > 75 | > 75 | > 75 | > 75 | > 75
CN(C)c1ccc(/C=C(\NC(=O)c2ccccc2)C(=O)NCC(=O)O)cc1 | > 100 | > 100 | > 100 | > 100 | > 100 | > 100 |  | > 100 | > 100 | > 100 | > 100 | > 100 | > 100 | > 100 | > 100 | > 100 | > 100 | > 100
COc1cc2c(c(O)c1OC)C(O)C1CCC(=O)N1C2c1cccc2ccccc12 (centres undefined) | > 100 | > 100 | > 100 | > 100 | > 100 | > 100 | > 100 | > 100 | > 100 | > 100 | > 100 | > 100 | > 100 | > 100 |  | > 100 | > 100 | > 100
O=C(Nc1nc(C23CC4CC(CC(C4)C2)C3)cs1)c1c(O)c2ccccc2[nH]c1=O | > 100 | > 100 | > 100 |  | > 100 | > 100 | > 100 | > 100 | > 100 |  | > 100 | > 100 |  | > 100 | > 100 | > 100 | > 100 | 
C=CCOC(=O)Cn1cc(C)c(=O)[nH]c1=O | > 100 | > 100 | > 100 | > 100 | > 100 | > 100 | > 100 | > 100 | > 100 | > 100 | > 100 | > 100 | > 100 | > 100 | > 100 | > 100 |  | > 100
O=C1Cc2c([nH]c3c(Cl)cccc23)-c2ccccc2N1 | > 100 | > 100 | > 100 | > 100 | > 100 | > 100 | > 100 | > 100 | > 100 | > 100 | > 100 | > 100 | > 100 | > 100 | > 100 | > 100 | > 100 | > 100
O=Cc1c2ccccc2n2ccc3c4ccccc4[nH]c3c12 | > 10 | > 10 | > 10 | > 10 | > 10 | > 10 | > 10 | > 10 | > 10 | > 10 | > 10 |  | > 10 | > 10 | > 10 | > 10 | > 10 | > 10
CCCN1CC=C(c2cc(C(=O)OCC)[nH]c2-c2cc(C)no2)C1=O | > 100 | > 100 | > 100 | > 100 | > 100 | > 100 | > 100 | > 100 | > 100 | > 100 | > 100 | > 100 | > 100 | > 100 | > 100 | > 100 |  | > 100
COc1ccc(/C=C/c2sc3ccccc3[n+]2CCCCI)cc1OC | > 10 | > 10 | > 10 | > 10 | > 10 | > 10 | > 10 | > 10 | > 10 | > 10 | > 10 | > 10 | > 10 | > 10 | > 10 | > 10 | > 10 | > 10
COC(=O)C1CCOC(C)N1C(=O)OC(C)(C)C (centres undefined) | > 100 | > 100 | > 100 | > 100 | > 100 | > 100 | > 100 | > 100 | > 100 | > 100 | > 100 | > 100 | > 100 | > 100 | > 100 | > 100 | > 100 | > 100
C1=Nc2ccc(cc2)N=Cc2ccc(cc2)OCc2cccc(n2)COc2ccc1cc2 | > 100 | > 100 | > 100 | > 100 | > 100 | > 100 | > 100 | > 100 | > 100 | > 100 | > 100 | > 100 | > 100 | > 100 |  | > 100 | > 100 | > 100
